Laboratory results published in US11208412B2 (DAEGU-GYEONGBUK MEDICAL INNOVATION FOUNDATION, priority 2017, dated 2021).
Numbering of substitutions follows the chain as printed.

Columns and labels:
Experiment in all cases: Kinase selectivity, DiscoverX scanMAX Kinase assay panel (% control)
Format in all cases: binding
[1] = target: T1, kinases of the scanMAX Kinase assay panel (Homo sapiens, UniProt P00519); conditions: 1 uM
T1 construct: purchased DiscoverX Co. (contract measurement) scanMAX Kinase assay panel
T1 sequence (P00519 whole entry): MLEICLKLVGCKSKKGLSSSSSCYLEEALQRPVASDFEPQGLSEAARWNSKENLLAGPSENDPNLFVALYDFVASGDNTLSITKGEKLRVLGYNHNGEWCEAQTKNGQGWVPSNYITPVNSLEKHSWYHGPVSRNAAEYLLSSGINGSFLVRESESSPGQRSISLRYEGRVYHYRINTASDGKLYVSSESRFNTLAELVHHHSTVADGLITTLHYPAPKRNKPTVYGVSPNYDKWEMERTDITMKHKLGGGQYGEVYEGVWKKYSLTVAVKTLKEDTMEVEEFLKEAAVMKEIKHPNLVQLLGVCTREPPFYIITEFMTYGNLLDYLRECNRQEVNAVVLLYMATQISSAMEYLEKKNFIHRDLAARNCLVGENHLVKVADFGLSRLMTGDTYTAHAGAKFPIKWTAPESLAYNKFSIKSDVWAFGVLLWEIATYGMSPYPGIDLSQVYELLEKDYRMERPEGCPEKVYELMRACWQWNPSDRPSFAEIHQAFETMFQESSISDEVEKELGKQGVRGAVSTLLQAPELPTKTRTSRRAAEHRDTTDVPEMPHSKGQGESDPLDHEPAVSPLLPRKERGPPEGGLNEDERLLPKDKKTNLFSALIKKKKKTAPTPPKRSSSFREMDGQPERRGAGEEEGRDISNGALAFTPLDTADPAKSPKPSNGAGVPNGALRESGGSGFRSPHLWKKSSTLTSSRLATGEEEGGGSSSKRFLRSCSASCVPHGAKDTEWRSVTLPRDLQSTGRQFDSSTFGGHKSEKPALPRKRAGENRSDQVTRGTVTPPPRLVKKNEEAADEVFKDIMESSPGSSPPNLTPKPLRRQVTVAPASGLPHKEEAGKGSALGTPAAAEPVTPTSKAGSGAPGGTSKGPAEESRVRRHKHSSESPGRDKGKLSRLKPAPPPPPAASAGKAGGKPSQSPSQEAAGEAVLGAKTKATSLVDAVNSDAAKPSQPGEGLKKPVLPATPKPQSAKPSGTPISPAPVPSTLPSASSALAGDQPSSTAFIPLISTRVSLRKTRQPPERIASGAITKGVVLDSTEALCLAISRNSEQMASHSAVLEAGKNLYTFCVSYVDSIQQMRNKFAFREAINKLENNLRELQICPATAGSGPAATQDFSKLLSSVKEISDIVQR
Outline: (§1)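 A 1 uM DMSO solution of compound was applied across the panel kinases, and results were expressed as % control relative to DMSO (100%) and a positive control (0%).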

[2] = target: T2, kinases of the scanMAX Kinase assay panel (Homo sapiens, UniProt P04629); conditions: kinase TRKA; 1 uM in DMSO
T2 construct: purchased DiscoverX Co. (contract measurement) scanMAX Kinase assay panel
T2 sequence (P04629 33-796): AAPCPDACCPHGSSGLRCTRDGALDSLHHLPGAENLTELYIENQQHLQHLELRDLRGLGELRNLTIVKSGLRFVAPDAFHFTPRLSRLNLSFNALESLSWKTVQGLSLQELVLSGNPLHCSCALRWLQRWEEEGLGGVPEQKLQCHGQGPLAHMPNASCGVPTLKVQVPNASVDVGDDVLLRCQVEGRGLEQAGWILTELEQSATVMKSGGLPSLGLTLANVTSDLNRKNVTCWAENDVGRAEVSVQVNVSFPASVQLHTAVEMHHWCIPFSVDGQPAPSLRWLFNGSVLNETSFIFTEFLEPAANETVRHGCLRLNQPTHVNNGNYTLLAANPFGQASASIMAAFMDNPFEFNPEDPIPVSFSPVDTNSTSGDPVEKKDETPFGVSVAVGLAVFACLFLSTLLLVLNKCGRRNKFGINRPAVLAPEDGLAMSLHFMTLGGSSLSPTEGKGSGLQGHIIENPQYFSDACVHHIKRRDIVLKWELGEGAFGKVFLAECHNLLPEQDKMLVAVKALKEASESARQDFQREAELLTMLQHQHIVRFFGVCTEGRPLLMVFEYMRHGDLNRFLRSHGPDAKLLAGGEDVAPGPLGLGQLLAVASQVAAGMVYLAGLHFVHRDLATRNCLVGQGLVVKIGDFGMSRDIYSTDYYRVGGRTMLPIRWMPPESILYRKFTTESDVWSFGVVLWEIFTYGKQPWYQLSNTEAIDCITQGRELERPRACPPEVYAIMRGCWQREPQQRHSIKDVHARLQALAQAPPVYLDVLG
Outline: as §1

[3] = target: T3, kinases of the scanMAX Kinase assay panel (Homo sapiens, UniProt P36888, D835H); conditions: FLT3(D835H); 1 uM
T3 construct: purchased DiscoverX Co. (contract measurement) scanMAX Kinase assay panel
T3 sequence (P36888 27-993 D835H): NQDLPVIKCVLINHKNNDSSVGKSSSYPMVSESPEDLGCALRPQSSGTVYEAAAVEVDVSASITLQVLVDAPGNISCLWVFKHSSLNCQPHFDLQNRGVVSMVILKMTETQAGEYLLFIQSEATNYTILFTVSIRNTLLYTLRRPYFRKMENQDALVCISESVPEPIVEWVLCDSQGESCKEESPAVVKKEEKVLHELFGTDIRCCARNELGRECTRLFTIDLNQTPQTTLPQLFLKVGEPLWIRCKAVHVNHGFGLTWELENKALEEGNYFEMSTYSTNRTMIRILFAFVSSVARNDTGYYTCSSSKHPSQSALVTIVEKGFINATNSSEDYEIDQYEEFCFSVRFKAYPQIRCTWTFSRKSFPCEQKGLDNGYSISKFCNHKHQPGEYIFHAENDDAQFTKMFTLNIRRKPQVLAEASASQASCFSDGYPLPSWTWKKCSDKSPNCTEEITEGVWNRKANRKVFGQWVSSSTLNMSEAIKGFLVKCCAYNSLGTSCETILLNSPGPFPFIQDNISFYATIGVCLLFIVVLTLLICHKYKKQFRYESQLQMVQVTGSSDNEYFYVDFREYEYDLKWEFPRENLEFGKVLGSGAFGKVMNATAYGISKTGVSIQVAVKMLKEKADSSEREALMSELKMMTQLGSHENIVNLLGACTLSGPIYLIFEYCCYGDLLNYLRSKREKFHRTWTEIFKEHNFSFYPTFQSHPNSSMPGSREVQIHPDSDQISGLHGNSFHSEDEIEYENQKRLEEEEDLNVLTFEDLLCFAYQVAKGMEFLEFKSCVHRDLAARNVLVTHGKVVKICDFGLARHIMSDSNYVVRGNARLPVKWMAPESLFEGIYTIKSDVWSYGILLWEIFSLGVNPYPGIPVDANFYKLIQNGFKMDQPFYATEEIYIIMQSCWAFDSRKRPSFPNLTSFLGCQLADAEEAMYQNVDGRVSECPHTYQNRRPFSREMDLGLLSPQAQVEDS
Outline: as §1

[4] = target: T4, kinases of the scanMAX Kinase assay panel (Homo sapiens, UniProt P36888, D835V); conditions: FLT3(D835V); 1 uM
T4 construct: purchased DiscoverX Co. (contract measurement) scanMAX Kinase assay panel
T4 sequence (P36888 27-993 D835V): T3 sequence (P36888 27-993 D835H) with H809V
Outline: as §1

[5] = target: T5, kinases of the scanMAX Kinase assay panel (Homo sapiens, UniProt Q8TDR2); conditions: kinase STK35; 1 uM in DMSO
T5 construct: purchased DiscoverX Co. (contract measurement) scanMAX Kinase assay panel
T5 sequence (Q8TDR2 whole entry): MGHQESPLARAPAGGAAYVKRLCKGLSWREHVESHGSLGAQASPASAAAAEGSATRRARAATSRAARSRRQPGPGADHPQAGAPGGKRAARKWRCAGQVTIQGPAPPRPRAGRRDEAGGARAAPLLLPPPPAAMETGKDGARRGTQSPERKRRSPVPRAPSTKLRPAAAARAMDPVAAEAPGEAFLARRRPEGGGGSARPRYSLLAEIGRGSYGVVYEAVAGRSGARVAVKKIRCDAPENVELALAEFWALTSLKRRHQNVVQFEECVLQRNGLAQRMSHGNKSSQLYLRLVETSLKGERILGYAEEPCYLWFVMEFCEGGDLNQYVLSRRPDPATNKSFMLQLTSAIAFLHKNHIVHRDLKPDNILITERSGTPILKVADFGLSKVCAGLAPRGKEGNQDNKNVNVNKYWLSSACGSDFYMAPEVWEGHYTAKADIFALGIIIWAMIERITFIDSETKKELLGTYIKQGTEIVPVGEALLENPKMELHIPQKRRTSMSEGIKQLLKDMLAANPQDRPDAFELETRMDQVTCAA
Outline: as §1

| SMILES | remaining binding at 1 µM ([1]; ABL1-nonphosphorylated) [%] | remaining binding at 1 µM ([1]; ABL1-phosphorylated) [%] | remaining binding at 1 µM [2] [%] | remaining binding at 1 µM [3] [%] | remaining binding at 1 µM [4] [%] | remaining binding at 1 µM [5] [%] |
| --- | --- | --- | --- | --- | --- | --- |
| CC1(Nc2nc(Nc3cnn([C@H]4CCN(C5COC5)C[C@@H]4F)c3Cl)nc3[nH]cc(C#N)c23)CC1 [Example 52, 2-((5-chloro-1-((3S,4S)-3-fluoro-1-(oxetane-3-yl)piperidine-4-yl)-1H-pyrazole-4-yl)amino)((1-methylcyclopropyl)amino)-7H-pyrrolo[2,3-d]pyrimidine-5-carbonitrile] | 6.4 | 1.8 | 0.5 | 0.1 | 0 | 14 |
| CNc1nc(Nc2ccc(C(=O)N3CCOCC3)cc2OC)nc2[nH]cc(C#N)c12 [Example 1, 2-((2-methoxy-4-(morpholine-4-carbonyl)phenyl)amino)-4-(methylamino)-7H-pyrrolo[2,3-d]pyrimidine-5-carbonitrile] | 92 | 88 | 67 | 92 | 58 | 100 |
| CCNc1nc(Nc2ccc(C(=O)N3CCC(N4CCOCC4)CC3)cc2OC)nc2[nH]cc(C(F)(F)F)c12 [Example 104, (4-((4-(ethylamino)-5-(trifluoromethyl)-7H-pyrrolo[2,3-d]pyrimidine-2-yl)amino)-3-methoxyphenyl)(4-morpholinopiperidine-1-yl)methanone] | 91 | 63 | 98 | 21 | 0 | 100 |
